Test results taken from patent US4699914A, “Imidazole group containing 2(1H)-pyridones and method for treating heart insufficiencies in humans” (A. Nattermann & Cie GmbH, priority 1984, dated 1987).

Key:
Anaesthetized dog = assay: Evaluation of the cardiotonic activity in vivo, anaesthetized dog; set-up: species or system dog (adult mongrel dogs of either sex); Blood Pressure: unit not given here; conditions: intravenous
Experimental: The effects of increasing doses of the drugs were measured upon intravenous administration to anaesthetized dogs. As parameters myocardial contractility, heart rate and arterial blood pressure were registered.
Adult mongrel dogs of either sex received a premedication of morphinhydrochloride (1.0 mg/kg s.c.). Thirty minutes later anaesthesia was induced by chloralose/urethane. The animals were heparinised with 500 I.U. heparin/kg (i.v.) as an initial dosage followed by doses of 250 I.U./kg given every 4 hours.
The trachea was intubated but the animals were allowed to breathe spontaneously. The test solutions were injected via a cannula in the vena cephalica antebrachii dextra. Arterial blood pressure was measured by a cannula in the femoral artery. In order to enable the registration of the myocardial contractility a Millar catheter tip pressure transducer was inserted into the left ventricle by way of the left carotid artery. Arterial blood pressure and left ventricular blood pressure were recorded continuously. Heart rate is triggered from the peak of the blood pressure signal.
From the left ventricular blood pressure the first derivative was calculated by a differentiator amplifier to give left ventricular dp/dt which was recorded as well. The compounds were solved in tetrahydrofurfurylalcohol polyethylene glycolether when necessary with additional heating.
Each dose of the test compounds was administered in a volume of 0.1 ml/kg, the duration of the injection was 1 minute.
The results with the tested compound representing the subject of invention 3,6-Dimethyl-5-[4-(1-imidazolyl)-2-thienyl]-2(1H)-pyridone-hydrochloride=Ain comparison with reference substance 4,5-Dihydro-6-[4-(1-imidazolyl)-phenyl]-3(2H)-pyridazinone ((CI 914, Drugs of the Future 9 (1984), 256)=B are given in the table 1.

human platelets = assay: Inhibition of the collagen-induced platelets aggregation in vitro (method of Born); type: cell-based; conditions: read-out: IC50 (concentration which causes an aggregation inhibition of 50%), platelet rich human plasma
Experimental: The inhibition of the collagen-induced platelets aggregation in vitro was carried out by using the method of Born (Nature, 194, 927-929 (1962)) in using a platelet rich human plasma with the substances of the present invention 3,6-dimethyl-5-[-5-(1-imidazolyl)-2-thienyl]-2(1H)-pyridone-hydrochloride=C, 3,6-dimethyl-5-[4-(1-imidazolyl)phenyl]-2(1H)-pyridone-hydrochloride=D, 5-[4-(1-imidazolyl)-2-thienyl]-6-methyl-2(1H)-pyridone-hydrochloride=E in comparison with the reference substance acetylsalicyclic acid=F.

Water solubility = type: physicochemical; conditions: hydrochloride, in words

Cc1[nH]c(=O)c(C)cc1-c1cc(-n2ccnc2)cs1.Cl [A, 3,6-Dimethyl-5-[4-(1-imidazolyl)-2-thienyl]-2(1H)-pyridone-hydrochloride]
Blood Pressure (Anaesthetized dog; 0.01 mg/kg): -0.2 | Contractility (Anaesthetized dog; 0.01 mg/kg): +32.4 | Heart Rate (Anaesthetized dog; 0.01 mg/kg): +5.9 | Blood Pressure (Anaesthetized dog; 0.0316 mg/kg): -4.1 | Contractility (Anaesthetized dog; 0.0316 mg/kg): +83.3 | Heart Rate (Anaesthetized dog; 0.0316 mg/kg): +20.0 | Blood Pressure (Anaesthetized dog; 0.1 mg/kg): -17.4 | Contractility (Anaesthetized dog; 0.1 mg/kg): +185.5 | Heart Rate (Anaesthetized dog; 0.1 mg/kg): +32.1

O=C1CCC(c2ccc(-n3ccnc3)cc2)=NN1 [B, 4,5-Dihydro-6-[4-(1-imidazolyl)-phenyl]-3(2H)-pyridazinone, reference compound]
Blood Pressure (Anaesthetized dog; 0.01 mg/kg): -1.3 | Contractility (Anaesthetized dog; 0.01 mg/kg): +8.7 | Heart Rate (Anaesthetized dog; 0.01 mg/kg): +3.6 | Blood Pressure (Anaesthetized dog; 0.0316 mg/kg): -0.7 | Contractility (Anaesthetized dog; 0.0316 mg/kg): +25.5 | Heart Rate (Anaesthetized dog; 0.0316 mg/kg): +18.9 | Blood Pressure (Anaesthetized dog; 0.1 mg/kg): -10.4 | Contractility (Anaesthetized dog; 0.1 mg/kg): +64.8 | Heart Rate (Anaesthetized dog; 0.1 mg/kg): +15.4

Cc1[nH]c(=O)c(C)cc1-c1ccc(-n2ccnc2)s1 [C]
IC50 (human platelets): 440 nM

Cc1[nH]c(=O)c(C)cc1-c1ccc(-n2ccnc2)cc1 [D]
IC50 (human platelets): 370 nM

Cc1[nH]c(=O)ccc1-c1cc(-n2ccnc2)cs1 [E]
IC50 (human platelets): 540 nM

CC1=C(c2ccc(-n3ccnc3)cc2)CCC(=O)N1.Cl [Example 22, 3,4-dihydro-5-[4-(1-imidazolyl)-phenyl]-6-methyl-2(1H)-pyridone-hydrochloride]
water solubility (Water solubility): water soluble
